The source of these data is patent US6309842A, “Use of modified tethers in screening compound libraries” (Glaxo Wellcome Inc., priority 1997, dated 2001).

In assay [1] the target is T1, IL-1R (Homo sapiens, UniProt P14778).
T1 sequence (P14778 18-569): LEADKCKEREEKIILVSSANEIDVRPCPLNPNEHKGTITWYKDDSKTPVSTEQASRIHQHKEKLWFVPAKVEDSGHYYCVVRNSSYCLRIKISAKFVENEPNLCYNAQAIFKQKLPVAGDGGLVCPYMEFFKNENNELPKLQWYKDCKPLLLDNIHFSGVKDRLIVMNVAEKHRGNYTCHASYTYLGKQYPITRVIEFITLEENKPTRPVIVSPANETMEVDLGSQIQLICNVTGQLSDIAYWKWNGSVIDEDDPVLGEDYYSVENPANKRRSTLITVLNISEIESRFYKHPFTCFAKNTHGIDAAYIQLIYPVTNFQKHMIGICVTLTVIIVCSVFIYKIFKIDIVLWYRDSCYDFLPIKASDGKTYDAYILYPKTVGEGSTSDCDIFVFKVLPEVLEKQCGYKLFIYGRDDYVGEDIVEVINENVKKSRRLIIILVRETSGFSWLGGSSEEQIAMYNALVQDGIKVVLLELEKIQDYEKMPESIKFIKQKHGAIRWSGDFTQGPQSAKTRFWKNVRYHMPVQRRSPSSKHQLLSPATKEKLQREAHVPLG
The experiment in a line: IL-1R binding assay.

Assay [2] has as its system IL-1RFc. The experiment in a line: Competition assay, IL-1RFc held on reservoir beads, released AP activity. As to conditions: beads coated with streptavidin or biotin-MBP-AF12413. In kind it is binding. The source says:
This example uses two classes of beads referred to as reservoir beads and library beads. The reservoir beads have receptor immobilized via a known ligand. The library beads have compounds to be screened, identifier tags and tethers as before. A compound released from a library bead competes a labelled receptor from a reservoir bead, and the labelled receptor, directly or indirectly, modifies a tether on proximate library beads. Both sets of beads can be added to nanowells for performing the assay.
500 μl beads (Polysciences, Inc., 2.5% Solids-latex, 2 μm) were washed twice with PBS, resuspended in 1 ml of PBS and split into 5 tubes (a, b, c, d, e). 300 μl 1 mg/ml coating protein was added per tube and incubated at 37° C. for 3 hr on shaker. The beads were washed with PBT. Coating proteins were added in the five tubes as follows: a. BSA-Biotin (Sigma), b. BSA (LC)-Biotin (Sigma), c. Hemocyanin-Biotin (Sigma), d. Streptavidin (Gibco BRL), e. Biotin-MBP-AF12413 [[…](biotin)[…] (SEQ ID NO:30)-maltose binding protein-[…] (SEQ ID NO:31)].
The beads were blocked with 1 ml PBT and incubated at room temperature overnight on shaker and washed with PBT. 300 μl of 1 mg/ml streptavidin and 1.2 ml PBT were added to a, b, c, tubes, which were incubated at; 37° C. for 1 hour on shaker. The tubes were washed twice in PBS. […]

Assay [3] deals with RARa (Retinoic Acid Receptor alpha) (Homo sapiens, UniProt P10276). The experiment in a line: Gal4 DNA binding domain/RARa fusion with 5x UAS-tk-SEAP reporter in CHOK1 cells.
Chain of RARa (Retinoic Acid Receptor alpha) (P10276 whole entry, the tested form may be a part): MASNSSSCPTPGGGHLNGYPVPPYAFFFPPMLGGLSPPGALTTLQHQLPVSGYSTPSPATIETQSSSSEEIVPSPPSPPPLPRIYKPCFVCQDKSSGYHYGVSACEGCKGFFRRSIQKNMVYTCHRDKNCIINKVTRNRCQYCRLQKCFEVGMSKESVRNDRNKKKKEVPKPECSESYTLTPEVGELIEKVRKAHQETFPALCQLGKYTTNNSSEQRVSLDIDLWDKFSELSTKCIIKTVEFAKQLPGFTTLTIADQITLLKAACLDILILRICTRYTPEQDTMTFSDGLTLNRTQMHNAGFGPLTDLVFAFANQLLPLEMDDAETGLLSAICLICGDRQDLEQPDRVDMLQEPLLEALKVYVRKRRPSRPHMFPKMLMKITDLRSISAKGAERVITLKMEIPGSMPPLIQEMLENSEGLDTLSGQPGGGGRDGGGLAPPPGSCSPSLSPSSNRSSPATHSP
Experimental: The Gal4 DNA response element (5× UAS) was cloned upstream of the SEAP reporter gene, driven by the tk promoter, into the pGL3 vector (Promega). The pSG5 vector (Stratagene) was used to clone a Gal4 DNA Binding Domain/RARa (Retinoic Acid Receptor alpha)(carboxy end) fusion. These two plasmids were simultaneously transiently lipofected into CHOK1 cells using with Lipofectamine (Gibco BRL). The lipofected cells were seeded into individual wells on 2, 96-well culture plates (Falcon). The cells were grown for 16 hr in 100 μl/well Optimem Media (Gibco) with 10% dilapidated serum (Sigma) that was heat treated at 65° C. for 45 minutes before adding to the media. Serum was heated to inactivate endogenous phosphatases. After 16 hr growth at 37° C., there were 10^4 cells/well. Cells in one plate were stimulated with 1 μM retinoic acid; the cells in the other plate were not stimulated. Media was the same. The plates were incubated in the 37° C. cell culture incubator for another 24 hr. The supernatants were removed from the individual wells on the plates. All supernatants from stimulated cells were pooled; all supernatants from nonstimulated cells were pooled. Both were stored at 4° C. overnight. The cells were discarded.
The next day, 100 μl of each supernatant was tested for SEAP activity using the Tropix Chemiluminescent Assay Kit, as before.

What is called IC50 is the point on the concentration scale where inhibition reaches its midpoint. On to NH2-YEWTPGYYQJY-NH2 [AF12304], for which the IC50 in assay [1] was around 2 nM. Also, the “Signal of released AP activity” value in assay [2] was “only background signals”.

Turning to `CC1=C(/C=C/C(C)=C/C=C/C(C)=C/C(=O)O)C(C)(C)CCC1` [retinoic acid], the “SEAP produced in supernatant” value in assay [3] (1 μM retinoic acid, 24 hr stimulation) is listed as “about 0.52 units of SEAP/ml”. For the same compound, the fold induction at 1 µM in assay [3] (CHO-K1, 24 h, read-out: Increase in SEAP production upon stimulation) worked out at 126.
